In patent US9340577B2, “HLA binding motifs and peptides and their uses” (priority 1992, dated 2016):
No end group written: not given here.

Key:
Assay type in all cases: binding
[1] = biological target: HLA-A1 (A*0101) (Homo sapiens, UniProt P04439, A114D/A174V/A182V/D101N/D185E/E176A/E190D/L180R/Q94H/R68K/S129P/T187R/V100A/V91M/W191G); test: biochemical
[2] = biological target: A2.1 HLA molecules (Homo sapiens, UniProt P04439, D140Y/D185E/D98H/E176V/E277Q/G131W/G231S/I119V/I121R/I166T/I218V/L300P/L318F/N151K/N90K/P208A/P217A/Q86G/Q94H/R138H/R169H/T345S); design: A*0201 / A2.1 Binding / A2 Bind. / A2 / A2.1 (binding capacity): scale not given here
[3] = biological target: HLA-A3.2 (A*0301) (Homo sapiens, UniProt P04439); test: biochemical
[4] = biological target: A31 (A*3101) (Homo sapiens, UniProt P04439, A270S/D185E/E176V/E277Q/F33T/G231S/G80R/H175R/I121M/I218V/I322F/K168Q/L300P/L318F/M331R/P217A/Q94H/R138Q/T323A/T345S/T97I/V358M); test: biochemical
[5] = biological target: A*3301 (Homo sapiens, UniProt P04439, A270S/D185E/E176V/E277Q/E87N/F33T/G231S/H175R/I121M/I218V/I322F/K168Q/K210R/L300P/L318F/M331R/P217A/Q86R/Q94H/R138Q/T323A/T345S/T97I/V358M/Y195H); test: biochemical
[6] = biological target: A*6801 (Homo sapiens, UniProt P04439, A269V/D185E/E176V/E277Q/E87N/F33Y/G231S/I121M/I166T/I218V/L180W/L300P/L318F/N151K/P208A/P217A/Q86R/R169H/T345S); test: biochemical
[7] = biological target: HLA-A*0201 (HLA-A2.1) (Homo sapiens, UniProt P04439, D140Y/D185E/D98H/E176V/E277Q/G131W/G231S/I119V/I121R/I166T/I218V/L300P/L318F/N151K/N90K/P208A/P217A/Q86G/Q94H/R138H/R169H/T345S); test: biochemical
[8] = biological target: A*0202 (Homo sapiens, UniProt P04439, D140Y/D185E/D98H/E176V/E277Q/G131W/G231S/I119L/I121R/I166T/I218V/L180W/L300P/L318F/N151K/N90K/P208A/P217A/Q67R/Q86G/Q94H/R138H/R169H/T345S); test: biochemical
[9] = biological target: A*0203 (Homo sapiens, UniProt P04439, A173T/D140Y/D185E/D98H/E277Q/G131W/G231S/I119V/I121R/I166T/I218V/L180W/L300P/L318F/N151K/N90K/P208A/P217A/Q86G/Q94H/R138H/R169H/T345S); test: biochemical
[10] = biological target: A*0206 (Homo sapiens, UniProt P04439, D140Y/D185E/D98H/E176V/E277Q/F33Y/G131W/G231S/I119V/I121R/I166T/I218V/L300P/L318F/N151K/N90K/P208A/P217A/Q86G/Q94H/R138H/R169H/T345S); test: biochemical
[11] = biological target: A*6802 (Homo sapiens, UniProt P04439, A269V/D140Y/D185E/E176V/E277Q/E87N/F33Y/G231S/I121R/I166T/I218V/L180W/L300P/L318F/N151K/P208A/P217A/Q86R/R138H/R169H/S129P/T345S/V36M); test: biochemical
[12] = biological target: HLA-A11 (A*1101) (Homo sapiens, UniProt P04439, A114D/D185E/E176A/F33Y/L180Q/S129P/T187R); test: biochemical

Sequence	IC50 [7]	IC50 [8]	IC50 [9]	IC50 [10]	IC50 [11]	further results
ALFLGFLGA						A1 [1]: 0.0945; A2 Bind. [2]: 0.0945
ALFLGFLGAA						A1 [1]: 0.4950; A2 Bind. [2]: 0.4950
ALLYKLDIV						A1 [1]: 0.0362; A2 Bind. [2]: 0.0362
ALTVVWLLV						A1 [1]: 0.0390; A2 Bind. [2]: 0.0390
AVLSIVNRV						A1 [1]: 0.0132; A2 Bind. [2]: 0.0132
CVSHRGLYY [Peptide 88.0401]						IC50 [3]: 27 nM; IC50 [4]: > 20000 nM; IC50 [5]: > 20000 nM; IC50 [6]: > 20000 nM; IC50 [1]: 108 nM
FIMIVGGLV						A1 [1]: 0.0131; A2 Bind. [2]: 0.0131
FLAIIWVDL						A1 [1]: 0.0233; A2 Bind. [2]: 0.0233
FLGAAGSTM						A1 [1]: 0.0190; A2 Bind. [2]: 0.0190
FLYGALLL						A1 [1]: 0.0345; A2 Bind. [2]: 0.0345
FLYGALLLA						A1 [1]: 1.9000; A2 Bind. [2]: 1.9000
FMIAATYNFAV						A1 [1]: 0.4950; A2 Bind. [2]: 0.4950
RFEDPTRRPY [Peptide 78.0005]						IC50 [1]: 19200 nM
RVLQQLLFV [Peptide 1545.05]	10 nM	1010 nM	29 nM	6.4 nM	> 20000 nM	
SLNRSDPVT [Peptide 9013.0099]	> 20000 nM	121 nM	2490 nM	> 20000 nM	> 20000 nM	
SLNRSDPVTL [Peptide 9013.0233]	16200 nM	59 nM	80 nM	> 20000 nM	> 20000 nM	
SLQDSQFEL [Peptide 1578.35]	141 nM	1.4 nM	165 nM	160 nM	8850 nM	
SLYTHLQCL [Peptide 1578.20]	224 nM	2.6 nM	11 nM	540 nM	8470 nM	
TAKLTIESV [Peptide 9013.0009]	> 20000 nM	480 nM	216 nM	10700 nM	243 nM	
TILQQLLFI [Peptide 1525.26]	95 nM	2790 nM	367 nM	91 nM	7030 nM	
TLELFIPNITV [Peptide 9013.0299]	161 nM	502 nM	15800 nM	2330 nM	1040 nM	
TLELFISNI [Peptide 9013.0082]	2460 nM	170 nM	1700 nM	3850 nM	949 nM	
TLFNVTRNDV [Peptide 9013.0230]	1480 nM	69 nM	25 nM	4840 nM	> 20000 nM	
TLKLTIEST [Peptide 9013.0010]	18300 nM	80 nM	24 nM	> 20000 nM	> 20000 nM	
TLNNSGSYT [Peptide 9013.0065]	> 20000 nM	237 nM	233 nM	> 20000 nM	> 20000 nM	
TLQATPGPA [Peptide 9013.0028]	19400 nM	1980 nM	29 nM	> 20000 nM	> 20000 nM	

Sequence	IC50 [7]	IC50 [8]	IC50 [9]	IC50 [10]	IC50 [11]	further results
TLQDVSLEV [Peptide 1578.45]	701 nM	18 nM	26 nM	2070 nM	2680 nM	
TLTTITVYA [Peptide 9013.0069]	14 nM	0.75 nM	2.6 nM	666 nM	5 nM	
TVNNSGSYV [Peptide 9013.0064]	16600 nM	310 nM	39 nM	> 20000 nM	44 nM	
TVTTITVYV [Peptide 9013.0068]	102 nM	12 nM	58 nM	95 nM	3 nM	
VADKALKFY [Peptide E6-69]						binding to HLA-A3.2 (in words) ([3]; HPV 16 E6/E7 9-mers): bound; binding class for HLA-A11.2 [12]: weak affinity; binding to HLA-A11.2 (in words) [12]: bound; binding to HLA-A1 (in words) [1]: bound
VIKSDLVNEEV [Peptide 9013.0278]	> 20000 nM	57 nM	1730 nM	> 20000 nM	> 20000 nM	
VLAEAMAAA [Peptide 1516.12]	17 nM	1.9 nM	3.2 nM	16 nM	639 nM	
VLAEAMGQV [Peptide 1539.05]	55 nM	1.7 nM	3.2 nM	75 nM	168 nM	
VLAEAMSHT [Peptide 1539.06]	243 nM	16 nM	7.5 nM	975 nM	> 20000 nM	
VLAEAMSHV [Peptide 1516.08]	29 nM	1.9 nM	5.5 nM	89 nM	304 nM	
VLAEAMSRV [Peptide 1516.10]	40 nM	2.6 nM	3.7 nM	75 nM	487 nM	
VLEGKEVLLLV [Peptide 9013.0273]	1840 nM	32 nM	272 nM	4610 nM	> 20000 nM	
VLKSDLVNEEA [Peptide 9013.0279]	> 20000 nM	14 nM	3420 nM	> 20000 nM	> 20000 nM	
VQWAFDNEL [Peptide 86.0182]	3230 nM	319 nM	449 nM	256 nM	> 20000 nM	
WALTVVWLL						A1 [1]: 0.0415
YLCGIQNSVSA [Peptide 9013.0338]	208 nM	21 nM	180 nM	513 nM	9160 nM	
YLWWVNNQSV [Peptide 9013.0197]	8.9 nM	1.2 nM	4.2 nM	65 nM	17 nM	
YLYYRPGVNL [Peptide 9013.0209]	54 nM	2.2 nM	2.8 nM	940 nM	953 nM	
YSDIRELRHY [Peptide 86.0055]						IC50 [1]: 9.9 nM
YTCGIQNSV [Peptide 9013.0096]	1970 nM	71 nM	310 nM	342 nM	140 nM	
YTNWGEIYI [Peptide 1578.49]	293 nM	10 nM	82 nM	700 nM	24 nM	
YTNWSEIYI [Peptide 1578.56]	61 nM	3.6 nM	47 nM	216 nM	5 nM	
YVAWKYIYY [Peptide 88.0433]						IC50 [1]: 310 nM
YVIGTQQAV [Peptide 9013.0024]	160 nM	3.2 nM	6.2 nM	84 nM	3 nM	
YVSGANLNL [Peptide 9013.0100]	6160 nM	13 nM	75 nM	230 nM	374 nM	
